The subject of one assay is subcutaneous MC38 tumors. Description: Subcutaneous MC38 tumor model. Type of assay: in vivo, mice. On the procedure: FIG. 16A is a line graph of the subcutaneous tumor volume of MC38 tumors in mice treated with vehicle or apilimod, 30 mg/kg×5 days/week.
FIG. 16B is a series of two scatter plots of the percent IFNγ^+ of CD8^+ T cells in vehicle or apilimod-treated MC38 tumors.
FIG. 16C is a line graph of the subcutaneous tumor volume of MC38 tumors in mice treated with vehicle versus apilimod, 30 mg/kg×5 days/week, in wild-type or Batf3^−/− mice.
FIG. 26A is a bar graph of the percent IFNγ^+ of CD8^+ T cells in vehicle or apilimod-treated, 30 mg/kg×5 days/week MC38 tumors.
FIG. 26B is a line graph of the subcutaneous tumor volume of MC38 tumors treated with vehicle versus apilimod, 30 mg/kg×5 days/week, in NSG™ mice.
FIG. 26C is a line graph of the subcutaneous tumor volume of MC38 tumors in mice treated with vehicle versus apilimod, 30 mg/kg×5 days/week, and additionally treated with IgG2a or αIL-12p40 blocking antibody.
FIG. 26D is a line graph of the subcutaneous tumor volume of MC38 tumors in mice treated with vehicle versus apilimod, 30 mg/kg×5 days/week, and additionally treated with IgG1 or αIFNγ blocking antibody.

Assay [1] deals with subcutaneous B16F10 tumors. Description: Subcutaneous B16F10 tumor model. Type of assay: in vivo, mice. As for the experimental part:
FIG. 15D is a line graph of the subcutaneous tumor volume of B16F10 tumors in PIKfyve KO mice or WT mice treated with anti-PD1 antibody, 200 μg every 3 days, or isotype control after 15 days.
FIG. 16D is a line graph of the subcutaneous tumor volume of B16F10 tumors in mice treated with vehicle or apilimod, 30 mg/kg daily, in wild-type or Batf3^−/− mice.
FIG. 26E is a line graph of the subcutaneous tumor volume of B16F10 tumors in mice treated with vehicle or apilimod, 30 mg/kg daily, in NSG™ mice.
FIG. 26F is a line graph of the subcutaneous tumor volume of B16F10 tumors in mice treated with vehicle versus apilimod, 30 mg/kg daily, in NSG™ mice.

Assay [2] has as its system NF-κB gene targets in cDCs. The experiment in a line: RNA-seq and gene set enrichment in cDCs. Type of assay: cell-based, mice. On the procedure: FIG. 14B is a line graph of the enrichment of NF-κB target genes in DMSO or apilimod-treated, 3 hours, cDCs after 6 days of culture.
FIG. 14C is a line graph of the enrichment of NF-κB target genes in DMSO or apilimod-treated, 8 hours, cDCs after 6 days of culture.
FIG. 14H is a scatter plot of differentially expressed genes in apilimod versus DMSO-treated, 8 hours, cDCs after 6 days of culture.
FIG. 21C is a line graph of MSigDB Hallmark “TNF_SIGNALING_VIA_NFκB” in apilimod vs. DMSO-treated, 3 hours, cDCs after 6 days of culture.
FIG. 21D is a line graph of MSigDB Hallmark “TNF_SIGNALING_VIA_NFκB” in apilimod vs. DMSO-treated, 8 hours, cDCs after 6 days of culture.
The Eukaryote Total RNA Nano kit (Agilent Technologies; catalog #: 5067-1511) was used to check the quality of RNAs on an Agilent bioanalyzer. A total of 800 ng RNA was then used for library preparation with the KAPA RNA Hyper+RiboErase HMR kit (Roche Diagnostics; Catalog #: 08098140702), following the instructions from the user manual. Briefly, the ribosomal RNA was removed by enzymatic digestion, and then the RNA was fragmented to around 200-300 bp with heat in fragmentation buffer. Synthesis of cDNA was conducted with reverse transcriptase and random primer, and then the second strand was synthesized to generate double-stranded cDNA. Following the repair of the DNA ends, NEB adapter was ligated, and the DNA are amplified with the KAPA HiFi HotStart mix and NEB dual barcode. Quality of the library was checked using the bioanalyzer with the Agilent DNA 1000 Kit (Agilent Technologies; catalog #: 5067-1504), and the sequencing was performed using NovaSeq 6000. The RNA-sequencing data was analyzed with packages limma and edgeR See, e.g., Ritchie, M. E. et al., Nucleic Acids Res. 2015; 43(7):47; Phipson, B. et al., Ann. Appl. Stat. 2016; 10(2):946-963; Robinson, M. D. et al., Bioinformatics 2010; 26(1):139-40. […] The analyzed hallmark pathways were collected from the Molecular Signatures Database See, e.g., Subramanian, A. et al., Proc. Natl. Acad. Sci. USA 2005; 102(43):15545-15550; Liberzon, A. et al., Cell Syst. […]

Assay [3] has as its system immune cells enriched from spleens. Description: Immune cells from spleens of non-tumor-bearing mice. Type of assay: in vivo. As for the experimental part: FIG. 13A is a box and whisker plot of relative median fluorescent intensity of surface XCR1 in CD45^+ cells of splenic DCs in PIKfyve inhibitor-treated non-tumor-bearing mice.
FIG. 13B is a box and whisker plot of cDC1 cells from spleens of mice treated with vehicle or apilimod, 30 mg/kg daily, after 5 days of treatment.
FIG. 18A is a series of nine scatter plots of the gating strategy for CD69^+ effector, naïve, terminally differentiated, resident memory, central memory, and exhausted CD8^+ T cells from spleens of non-tumor-bearing mice treated with vehicle or apilimod, 30 mg/kg daily, after 5 days of treatment.
FIG. 18H is a series of nine scatter plots of the gating strategy for FIG. 13A-B and FIG. 18I for myeloid cells and cDCs.

Assay [4] in a line: Overall comparison across preclinical models. Type of assay: in vivo. Conditions: in many of models; dose of apilimod higher than ESK981. An excerpt: This could be, at least partially, explained by the reported instability of apilimod See, e.g., Ikonomov, O. C. et al., Toxicol. Appl. Pharmacol. 2019; 383:114771.
Where [5] appears, read: 30 mg/kg daily, 5 days, vs vehicle.

The source of these data is US20250144107A1, “USE OF A PIKFYVE INHIBITOR IN COMBINATION WITH IMMUNOTHERAPY” (The Regents of the University of Michigan, priority 2023, published 2025).

On to `Cc1cccc(/C=N/Nc2cc(N3CCOCC3)nc(OCCc3ccccn3)n2)c1` [apilimod, N-[(E)-(3-methylphenyl)methylideneamino]-6-morpholin-4-yl-2-(2-pyridin-2-ylethoxy)pyrimidin-4-amine], for which, in the assay with subcutaneous MC38 tumors (Batf3−/− vs WT mice), the “efficacy in Batf3−/− mice” value is “loss of apilimod efficacy”. Also, the “percentage of intratumoral IFNγ+CD8+ T cells” value in the assay with subcutaneous MC38 tumors (WT mice) is “increased”. Further, the MC38 tumor growth result in the assay on subcutaneous MC38 tumors (WT mice, 30 mg/kg x 5 days/week, vs vehicle) was “reduced”. Further, in the assay on subcutaneous MC38 tumors (immune-deficient NSG mice), the “efficacy in NSG mice” value is listed as “lost”. Moreover, in the assay with subcutaneous MC38 tumors (vs isotype control), the “efficacy with neutralizing antibody against IFNγ” value was “reduced” and the “efficacy with neutralizing antibody against IL-12” value is given as “reduced”. Moreover, in assay [1] (Batf3−/− mice), the “efficacy in Batf3−/− mice” value is “lost”. For the same compound, the “efficacy in NSG mice” value in assay [1] (NSG mice) was “lost”. For the same compound, the B16F10 tumor growth result in assay [1] (WT, non-transgenic mice, vs vehicle) is “reduced”. Also, the “enrichment of TNF_SIGNALING_VIA_NFκB gene set” value in assay [2] (3 and 8 hours, vs DMSO) was “positive enrichment”. Besides, the Sqstm1 expression result in assay [2] (8 hours, vs DMSO) is recorded as “most significantly upregulated gene”. In addition, in assay [2] (early time points), the “enrichment of direct NF-κB gene targets” value is reported as “positively enriched”. For the same compound, in assay [3] (setting [5]), the “percentage of terminally differentiated, memory or exhausted CD8+ T cells” value is given as “no changes”; the “proportions of CD69+CD8+ T cells” value is recorded as “increased”; the “total surface expression of CD11c, F4/80, or CD11b” value is listed as “no change”; the “total surface expression of XCR1” value is “increase”. Further, the “relative percentage of cDC1s versus cDC2 cells” value in assay [3] (within the cDC subset) is recorded as “increase”. Also, the “efficacy relative to ESK981” value in assay [4] was “weaker than ESK981”.
